Assay results: US20230330019A1, “EMULSION FORMULATIONS OF POORLY WATER-SOLUBLE COMPOUNDS” (priority 2022, published 2023)
Values after ≈ are worked out from the molar mass of the structure shown. Like-named read-outs stand apart in the source and are kept apart here.

Key:
Janus kinase 3 (JAK3) = target: T1, Janus kinase 3 (JAK3) (Homo sapiens, UniProt P52333); conditions: cited from earlier work
T1 sequence (P52333 1-1124): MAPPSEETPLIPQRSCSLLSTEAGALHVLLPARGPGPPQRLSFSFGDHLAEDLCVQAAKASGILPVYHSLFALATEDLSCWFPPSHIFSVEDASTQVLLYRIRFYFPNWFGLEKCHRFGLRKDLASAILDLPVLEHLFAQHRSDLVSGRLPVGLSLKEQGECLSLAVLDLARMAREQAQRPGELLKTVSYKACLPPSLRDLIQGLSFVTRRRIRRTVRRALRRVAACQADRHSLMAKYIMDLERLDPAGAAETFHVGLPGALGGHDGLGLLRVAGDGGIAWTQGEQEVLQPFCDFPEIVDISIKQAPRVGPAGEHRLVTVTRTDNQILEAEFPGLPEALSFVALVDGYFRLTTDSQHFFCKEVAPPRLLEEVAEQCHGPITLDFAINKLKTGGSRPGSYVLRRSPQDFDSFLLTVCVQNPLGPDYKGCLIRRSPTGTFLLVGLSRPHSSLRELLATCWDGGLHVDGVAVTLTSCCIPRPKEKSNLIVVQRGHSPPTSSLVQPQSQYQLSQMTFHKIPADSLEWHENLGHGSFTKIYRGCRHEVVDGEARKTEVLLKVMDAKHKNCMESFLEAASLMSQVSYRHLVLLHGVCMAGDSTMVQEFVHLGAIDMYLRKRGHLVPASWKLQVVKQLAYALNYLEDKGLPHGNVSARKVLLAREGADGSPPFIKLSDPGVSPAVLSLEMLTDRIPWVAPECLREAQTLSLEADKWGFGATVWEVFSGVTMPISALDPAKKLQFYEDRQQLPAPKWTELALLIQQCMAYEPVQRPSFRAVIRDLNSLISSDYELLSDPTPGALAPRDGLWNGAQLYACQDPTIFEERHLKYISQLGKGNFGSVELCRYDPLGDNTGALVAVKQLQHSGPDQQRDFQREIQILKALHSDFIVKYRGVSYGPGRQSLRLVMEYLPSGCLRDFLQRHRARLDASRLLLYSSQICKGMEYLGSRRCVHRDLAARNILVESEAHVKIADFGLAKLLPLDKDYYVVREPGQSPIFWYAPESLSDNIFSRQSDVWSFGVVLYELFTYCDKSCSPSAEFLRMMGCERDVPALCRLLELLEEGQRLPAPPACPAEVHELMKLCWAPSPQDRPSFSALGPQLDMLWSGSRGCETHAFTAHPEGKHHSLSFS

[1] = cited from earlier work
[2] = Water solubility of exemplified compounds, USP solubility definition; format: physicochemical
Source text: “Solubility” generally refers to the degree to which a substance dissolves in a solvent to make a solution (usually expressed as grams of solute per liter of solvent). Solubility of one fluid (liquid or gas) in another may be complete (totally miscible; e.g., methanol and water) or partial (e.g., oil and water dissolve only slightly). In general, “like dissolves like” (e.g., aromatic hydrocarbons dissolve in each other but not in water). Solubility is the ability of a solid, liquid, or gaseous chemical substance (referred to as the solute) to dissolve in a solvent (usually a liquid) and form a solution. The solubility of a substance depends on the types of solvent used, their polarity, and the temperature and pressure to which they are subjected. The solubility of a substance in a particular solvent is measured by the concentration of the saturated solution. A solution is considered saturated when adding additional solute no longer increases the concentration of the solution. The degree of solubility ranges widely depending on the substances, from infinitely soluble (fully miscible), such as ethanol in water, to poorly soluble, such as silver chloride in water. The term “insoluble” is often applied to poorly soluble compounds. Under certain conditions, the equilibrium solubility can be exceeded, yielding a supersaturated solution.
“Poorly water-soluble chemical compounds”: The United States Pharmacopeia (USP) designates the solubility of drugs as parts of solvent required for one part solute. […] The USP lists the solubility of a drug as the quantity of milliliters of solvent in which 1 g of solute will dissolve and assigns a descriptive term in the summary provided below.

[3] = cited from earlier work; remark: listed apart in the source
[4] = cited from earlier work; remark: listed apart in the source
[5] = Solubility screening panel in DEGEE; format: physicochemical
Source text: Fisetin, trans-resveratrol, and milk thistle extract (comprising silymarin) were all found to be soluble in DEGEE in a solubility screening panel evaluating surfactants and other emulsifiers for use in topical delivery. An initial objective was to find a suitable miscible oil for use in hair applications, such as argan, sesame, sunflower, fractionated coconut, and grape seed oils. […] The next step was to evaluate oil soluble emulsifiers, such as glyceryl oleate, sorbitan oleate, lauryl oleate, and lauryl sulfate. […] Oleic acid (a fatty acid) is known to be miscible with DEGEE, but it is a […] fatty acid, which makes it an unfavorable choice for use in a long-term topical dosing formulation. Oleic acid was evaluated with a mixture of sorbitan laurate, polyglyceryl-4 laurate, and dilauryl citrate. This formulation made a miscible mixture with fisetin, trans-resveratrol, and milk thistle dissolved in DEGEE. However, the dilution of the mixture with water created a suspension, and once again, the solids precipitated out after approximately one hour.

[6] = cited from earlier work; remark: listed apart in the source

| Compound | Definition (USP solubility descriptive term) ([2]; water) | mass_water/mass_solute ([2]; water) | Water Solubility [3] [µg/mL] | reported aqueous solubility [3] | solubility in DEGEE [5] | other results |
| --- | --- | --- | --- | --- | --- | --- |
| C/C=C(/C)C(=O)O[C@H]1[C@@H]2[C@H](C)C(=O)O[C@@H]2C[C@@H](C)[C@@H]2C=CC(=O)[C@]21C [Brevilin A] | – | – | – | – | – | inhibition of JAK3 (Janus kinase 3 (JAK3)): inhibit |
| O=C(O[C@@H]1Cc2c(O)cc(O)cc2O[C@@H]1c1cc(O)c(O)c(O)c1)c1cc(O)c(O)c(O)c1 [EGCG, [(2R,3R)-5,7-dihydroxy-2-(3,4,5-trihydroxyphenyl)chroman-3-yl]3,4,5-trihydroxybenzoate] | – | – | – | – | – | time at which blood levels peak ([1]; after consumption (oral)): ≤ 1.7 h; time by which majority of unchanged EGCG is excreted into the urine ([1]; from almost immediately): ≤ 8 h; absorbed plasma half-life ([1]; oral): about 5 hours |
| Silymarin | – | – | – | – | – | Definition (USP solubility descriptive term) [2]: very slightly insoluble; mass_water/mass_solute [2]: 2,500 |
| O=C1c2c(O)cc(O)cc2O[C@H](c2ccc(O)c(O)c2)[C@H]1O [Dihydroquercetin] | very slightly insoluble | 2,500 | 400 | – | – | – |
| O=c1c(O)c(-c2ccc(O)c(O)c2)oc2cc(O)ccc12 [Fisetin, 2-(3,4-dihydroxyphenyl)-3,7-dihydroxy-4H-1-benzopyran-4-one] | practically insoluble | 100,000 | 10 | about 0.01 mg/mL | soluble | log P [4]: 3.2; aqueous solubility ([3]; literature): 10.45 µg/mL (≈ 36.5 µM) |
| Oc1ccc(/C=C/c2cc(O)cc(O)c2)cc1 [trans-Resveratrol, 5-[(E)-2-(4-hydroxyphenyl)ethen-1-yl]benzene-1,3-diol] | practically insoluble | 33,333 | – | about 0.03 mg/mL | soluble | half-life ([6]; in vivo): about 15 min; bioavailability ([6]; oral): about 0.5% |
